In PubChem BioAssay AID1963870 (Molecular Pharmacology Branch, DTP, NCI, 2024) one finds IC50 and viability, T/C data, which are given here for three compounds.

The assay concerns 292921-168-R-J2-PDC KRAS tumor spheroid viability. Briefly: Anticancer human tumor 292921-168-R-J2-PDC patient-derived pancreatic carcinoma cell line growth inhibition [KRAS2]. The conditions noted are these: spheroids with HUVEC and MSC; for IC50: curve of first compound; for viability, T/C: stronger effect = lower value. The essentials: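 Combination screen of spheroid viability in tumor-cell co-cultures with endothelial (HUVEC) and mesenchymal stem cell stroma. Each agent was tested in half-log dilutions, topping at clinical Cmax or at 10 microM without a known Cmax.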

Where [1] appears, read: second compound 0.1 µM, first compound 0.0316 µM.
[2] abbreviates: second compound 0.1 µM, first compound 0.1 µM.
Where [3] appears, read: second compound 0.1 µM, first compound 0.316 µM.
[4] abbreviates: second compound 0.1 µM, first compound 1 µM.
Setting [5] is: second compound 0.316 µM, first compound 0.0316 µM.
The mark [6] stands for this setting: second compound 0.316 µM, first compound 0.1 µM.
The mark [7] stands for this setting: second compound 0.316 µM, first compound 0.316 µM.
Where [8] appears, read: second compound 0.316 µM, first compound 1 µM.
The mark [9] stands for this setting: second compound 1 µM, first compound 0.0316 µM.
[10] abbreviates: second compound 1 µM, first compound 0.1 µM.
Where [11] appears, read: second compound 1 µM, first compound 0.316 µM.
Setting [12] is: second compound 1 µM, first compound 1 µM.
The mark [13] stands for this setting: second compound 3.16 µM, first compound 0.0316 µM.
Setting [14] is: second compound 3.16 µM, first compound 0.1 µM.
Setting [15] is: second compound 3.16 µM, first compound 0.316 µM.
Setting [16] is: second compound 3.16 µM, first compound 1 µM.
The mark [17] stands for this setting: second compound 10 µM, first compound 0.0316 µM.
[18] abbreviates: second compound 10 µM, first compound 0.1 µM.
Where [19] appears, read: second compound 10 µM, first compound 0.316 µM.
Where [20] appears, read: second compound 10 µM, first compound 1 µM.
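Note: drug exposure lasted seven days after spheroids formed for three days.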
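Throughout, for viability, T/C: percent of DMSO vehicle control viability which is 100%.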

Broadly, the IC50 is the concentration that inhibits the measured activity by half. The term viability, T/C denotes the result in the treated group divided by that in the control group, in per cent. Turning to `COc1cc2nccc(Oc3ccc(NC(=O)C4(C(=O)Nc5ccc(F)cc5)CC4)cc3)c2cc1OC` + C=CC(=O)N1CCN(c2nc(=O)n(-c3c(C)ccnc3C(C)C)c3nc(-c4c(O)cccc4F)c(F)cc23)C(C)C1, the IC50 by setting is: (second compound 0.1 µM) 1960 nM; (second compound 0.316 µM) 2000 nM; (second compound 1 µM) 1680 nM; (second compound 3.16 µM) 822 nM; (second compound 10 µM) less than 31.6 nM. Also, the viability, T/C by setting is: under setting [1], 102%; under setting [2], 102%; under setting [3], 103%; under setting [4], 79.6%; (second compound 0.1 µM, first compound 3.16 µM) 28.9%; (second compound 0.1 µM, first compound 10 µM) 18.6%. Besides, the viability, T/C was 122% under setting [5]; 112% under setting [6]; 102% under setting [7]; 77% under setting [8]; 30.9% (second compound 0.316 µM, first compound 3.16 µM); 19.8% (second compound 0.316 µM, first compound 10 µM). In addition, the viability, T/C under setting [9] was 111%; the viability, T/C under setting [10] was 108%; the viability, T/C under setting [11] was 96.3%; the viability, T/C under setting [12] is 69.3%; the viability, T/C (second compound 1 µM, first compound 3.16 µM) is 27%; the viability, T/C (second compound 1 µM, first compound 10 µM) is 17.2%. Moreover, the viability, T/C under setting [13] was 74.1%; the viability, T/C under setting [14] is 77.6%; the viability, T/C under setting [15] was 62.9%; the viability, T/C under setting [16] was 49.6%; the viability, T/C (second compound 3.16 µM, first compound 3.16 µM) was 18.9%; the viability, T/C (second compound 3.16 µM, first compound 10 µM) was 14%. Besides, the viability, T/C reads like this: under setting [17], 18.9%; under setting [18], 25.4%; under setting [19], 15.7%; under setting [20], 22.5%; (second compound 10 µM, first compound 3.16 µM) 11.1%; (second compound 10 µM, first compound 10 µM) 6.69%.
As for `CCN1CCN(Cc2ccc(Nc3ncc(F)c(-c4cc(F)c5nc(C)n(C(C)C)c5c4)n3)nc2)CC1` + C=CC(=O)N1CCN(c2nc(=O)n(-c3c(C)ccnc3C(C)C)c3nc(-c4c(O)cccc4F)c(F)cc23)C(C)C1, the half-inhibitory concentration (IC50) (second compound 0.1 µM) turned out to be 58.1 nM; the IC50 (second compound 0.316 µM) is 85.6 nM; the IC50 (second compound 1 µM) was found to be 108 nM; the concentration for half-maximal inhibition (IC50) (second compound 3.16 µM) was 11.3 nM; the 50% inhibitory concentration (IC50) (second compound 10 µM) is less than 3.16 nM. Moreover, the viability, T/C by setting is: (second compound 0.1 µM, first compound 0.00316 µM) 95%; (second compound 0.1 µM, first compound 0.01 µM) 78%; under setting [1], 54.4%; under setting [2], 45.6%; under setting [3], 30.5%; under setting [4], 22.1%. The viability, T/C reads like this: (second compound 0.316 µM, first compound 0.00316 µM) 95.7%; (second compound 0.316 µM, first compound 0.01 µM) 82.4%; under setting [5], 64.4%; under setting [6], 47.6%; under setting [7], 35.3%; under setting [8], 26.7%. Moreover, the viability, T/C was 96.8% (second compound 1 µM, first compound 0.00316 µM); 82% (second compound 1 µM, first compound 0.01 µM); 66.2% under setting [9]; 50.4% under setting [10]; 37.2% under setting [11]; 22.6% under setting [12]. Besides, the viability, T/C by setting is: (second compound 3.16 µM, first compound 0.00316 µM) 57.7%; (second compound 3.16 µM, first compound 0.01 µM) 50%; under setting [13], 45%; under setting [14], 34.6%; under setting [15], 28.9%; under setting [16], 21.2%. Besides, the viability, T/C (second compound 10 µM, first compound 0.00316 µM) was 18.5%; the viability, T/C (second compound 10 µM, first compound 0.01 µM) is 23.9%; the viability, T/C under setting [17] is 23.7%; the viability, T/C under setting [18] was 22.9%; the viability, T/C under setting [19] is 20.4%; the viability, T/C under setting [20] is 6.06%.
Take `COC(=O)c1ccc2c(C(=Nc3ccc(N(C)C(=O)CN4CCN(C)CC4)cc3)c3ccccc3)c(O)[nH]c2c1`: the viability, T/C by setting is: (compound 3.16 µM) 6.78% [middle of 5 runs]; (compound 10 µM) 0.34% [middle of 5 runs].
